Legend:
U2932 cells [1] = experiment: Cell proliferation suppression test of single agents, U2932 (Alamar Blue, 96 h); type: cell-based, Human; conditions: Homo sapiens, U2932, single agent, read-out: Inhibitory Activity on cell proliferation IC50 U2932
Procedure: Human lymphoma cell line U2932 cells (obtained from DSMZ) were cultured in a 5% CO2 incubator using RPMI medium (Roswell Park Memorial Institute medium, Thermo Fisher Scientific Inc.) containing 10% fetal bovine serum (GE Healthcare) and 1% penicillin streptomycin (NACALAI TESQUE, INC.).
(§1) The OCI-Ly10 or U2932 cells (20000 cells/well) were seeded into 96-well plates (cell plates), to which the test compound diluted with the medium was added at final concentrations of 0.009 nM to 30000 nM (a final DMSO concentration of 0.3%), and after 96 hours of culture, an Alamar Blue reagent (Thermo Fisher Scientific Inc.) was added. After 3 hours, the fluorescence of excitation wavelength 560 nm/fluorescence wavelength 590 nm was measured and IC50 values of inhibitory activity were determined by setting a compound-free and cell-free well as 100% and a compound-free and cell-containing well as 0%.

OCI-Ly10 cells [2] = experiment: Dose-response study of BTK inhibitor in the presence of BCL-2 inhibitor, OCI-Ly10; type: cell-based; conditions: Homo sapiens, read-out: Inhibitory activity on cell proliferation OCI-Ly10 IC50
Procedure: as §1
(§2) Changes in IC50 values of the BTK inhibitor in the presence of the BCL-2 inhibitor at various concentrations were examined.

[3] = test system: BTK-C481S-mutant OCI-Ly10 cells; experiment: Cell proliferation suppression test of single agents, BTK-C481S-mutant OCI-Ly10; type: cell-based, Human; conditions: Homo sapiens, OCI-Ly10; single agent; read-out: Inhibitory activity on cell proliferation OCI-Ly10 BTK-C481S IC50
Procedure: as §1
(§3) BTK-C481S-mutant OCI-Ly10 cells were produced by point mutation knock-in using the CRISPR-Cas9 system. Cas9 protein (Thermo Fisher Scientific Inc.), guide RNA prepared with GeneArt™ Precision gRNA Synthesis Kit (Thermo Fisher Scientific Inc.), and a single-stranded synthetic oligonucleotide to replace 481st cysteine residue of BTK with a serine residue were introduced into OCI-Ly10 cells by an electroporation method. The resulting modified OCI-Ly10 cells were cultured in the presence of ibrutinib, and the grown cells were used as BTK-C481S-mutant OCI-Ly10 cells. Transduction of the mutation was confirmed by genomic DNA and mRNA sequence analysis.
In the same manner as in Test Example 1, IC50 values for each inhibitor single agent were determined.

[4] = test system: BTK-C481S-mutant OCI-Ly10 cells; experiment: Dose-response study of BTK inhibitor in the presence of BCL-2 inhibitor, BTK-C481S-mutant OCI-Ly10; type: cell-based; conditions: Homo sapiens, read-out: Inhibitory activity on cell proliferation OCI-Ly10 BTK-C481S IC50
Procedure: as §3
BTK-C481S-mutant lymphoma cells were used to examine changes in IC50 values of the BTK inhibitor in the presence of various concentrations of BCL-2 inhibitor.
From the results obtained for the BCL-2 inhibitor used as a single agent, BCL-2 inhibitor concentrations for three doses were selected for BTK-C481-mutant OCI-Ly10 cells.

U2932 cells [5] = experiment: Dose-response study of BTK inhibitor in the presence of BCL-2 inhibitor, U2932; type: cell-based; conditions: Homo sapiens, read-out: Inhibitory activity on cell proliferation U2932 IC50
Procedure: as §1, §2
From the result obtained for the BCL-2 inhibitor used as a single agent, BCL-2 inhibitor concentrations for three doses were selected for each cancer cell line.

OCI-Ly10 cells [6] = experiment: Cell proliferation suppression test of single agents, OCI-Ly10 (Alamar Blue, 96 h); type: cell-based, Human; conditions: Homo sapiens, OCI-Ly10, single agent, read-out: Inhibitory Activity on cell proliferation IC50 OCI-Ly10
Procedure: Human lymphoma cell line OCI-Ly10 cells (obtained from University Health Network) were cultured in a 5% CO2 incubator using IMDM medium (Iscove's Modified Dulbecco's Medium, Thermo Fisher Scientific Inc.) containing 20% fetal bovine serum (GE Healthcare) and 1% penicillin streptomycin (NACALAI TESQUE, INC.).
as §1

[7] = OCI-Ly10, in the presence of S-55746 10 nM
[8] = OCI-Ly10, in the presence of S-55746 30 nM
[9] = OCI-Ly10, in the presence of S-55746 100 nM
[10] = OCI-Ly10, in the presence of navitoclax 10 nM
[11] = OCI-Ly10, in the presence of navitoclax 30 nM
[12] = OCI-Ly10, in the presence of navitoclax 100 nM
[13] = OCI-Ly10, in the presence of obatoclax mesylate 50 nM
[14] = OCI-Ly10, in the presence of obatoclax mesylate 100 nM
[15] = OCI-Ly10, in the presence of obatoclax mesylate 200 nM
[16] = OCI-Ly10, in the presence of venetoclax 1 nM
[17] = OCI-Ly10, in the presence of venetoclax 3 nM
[18] = OCI-Ly10, in the presence of venetoclax 10 nM
[19] = OCI-Ly10, obatoclax mesylate 0 nM

Cn1cc(Nc2nc(N)nc(-c3cccc(-n4ccc5cc(C6CC6)cc(F)c5c4=O)c3CO)n2)cn1 [Compound (II-A), 2-(3-{4-Amino-6-[(1-methyl-1H-pyrazol-4-yl)amino]-1,3,5-triazin-2-yl}-2-(hydroxymethyl)phenyl)-6-cyclopropyl-8-fluoroisoquinolin-1(2H)-one]
IC50 (U2932 cells [1]): 34700 nM
IC50 (OCI-Ly10 cells [2]; OCI-Ly10, S-55746 0 nM): 33 nM
IC50 (OCI-Ly10 cells [2]; [7]): 29 nM
IC50 (OCI-Ly10 cells [2]; [8]): 25 nM
IC50 (OCI-Ly10 cells [2]; [9]): 18 nM
IC50 (OCI-Ly10 cells [2]; [10]): 51 nM
IC50 (OCI-Ly10 cells [2]; [11]): 42 nM
IC50 (OCI-Ly10 cells [2]; [12]): 26 nM
IC50 (OCI-Ly10 cells [2]; [13]): 25 nM
IC50 (OCI-Ly10 cells [2]; [14]): 28 nM
IC50 (OCI-Ly10 cells [2]; [15]): 30 nM
IC50 (OCI-Ly10 cells [2]; [16]): 38 nM
IC50 (OCI-Ly10 cells [2]; [17]): 27 nM
IC50 (OCI-Ly10 cells [2]; [18]): 19 nM
IC50 (OCI-Ly10 cells [2]; OCI-Ly10, navitoclax 0 nM): 59 nM
IC50 (OCI-Ly10 cells [2]; [19]): 38 nM
IC50 (OCI-Ly10 cells [2]; OCI-Ly10, venetoclax 0 nM): 42 nM
IC50 [3]: 150 nM
IC50 ([4]; OCI-Ly10, S-55746 0 nM): 150 nM
IC50 [4, 7]: 94 nM
IC50 [4, 8]: 69 nM
IC50 [4, 9]: 39 nM
IC50 [4, 10]: 260 nM
IC50 [4, 11]: 210 nM
IC50 [4, 12]: 110 nM
IC50 [4, 13]: 100 nM
IC50 [4, 14]: 95 nM
IC50 [4, 15]: 61 nM
IC50 [4, 16]: 110 nM
IC50 [4, 17]: 80 nM
IC50 [4, 18]: 53 nM
IC50 ([4]; OCI-Ly10, navitoclax 0 nM): 340 nM
IC50 [4, 19]: 300 nM
IC50 ([4]; OCI-Ly10, venetoclax 0 nM): 150 nM
IC50 (U2932 cells [5]; U2932, S-55746 0 nM): > 30000 nM
IC50 (U2932 cells [5]; U2932, in the presence of S-55746 100 nM): 5740 nM
IC50 (U2932 cells [5]; U2932, in the presence of S-55746 300 nM): 930 nM
IC50 (U2932 cells [5]; U2932, in the presence of S-55746 1000 nM): 100 nM
IC50 (U2932 cells [5]; U2932, in the presence of navitoclax 30 nM): 13400 nM
IC50 (U2932 cells [5]; U2932, in the presence of navitoclax 100 nM): 1360 nM
IC50 (U2932 cells [5]; U2932, in the presence of navitoclax 300 nM): 100 nM
IC50 (U2932 cells [5]; U2932, in the presence of obatoclax mesylate 50 nM): 28700 nM
IC50 (U2932 cells [5]; U2932, in the presence of obatoclax mesylate 100 nM): 25800 nM
IC50 (U2932 cells [5]; U2932, in the presence of venetoclax 3 nM): 8510 nM
IC50 (U2932 cells [5]; U2932, in the presence of venetoclax 10 nM): 2190 nM
IC50 (U2932 cells [5]; U2932, in the presence of venetoclax 100 nM): 160 nM
IC50 (U2932 cells [5]; U2932, navitoclax 0 nM): > 30000 nM
IC50 (U2932 cells [5]; U2932, obatoclax mesylate 0 nM): > 30000 nM
IC50 (U2932 cells [5]; U2932, venetoclax 0 nM): > 30000 nM
IC50 (OCI-Ly10 cells [6]): 42 nM
